Data on 19 compounds can be found in patent publication US9884862B2, “Pyridopyrimidinedione derivatives” (Novartis AG, priority 2014, dated 2018).

Structures are written as SMILES. Where two headings read alike, the source gives them in different places.

In one test the test system is CFTR-Y122X. Briefly: CFTR-Y122X assay (dual reporter isogenic Hek293 cell lines, Renilla luminescence readthrough). The class given is cell-based. Particulars: for Emax / AC50: nonsense mutation suppression, 24 h incubation, tested up to 100 μM; for Emax: 100% = 14 mM paromomycin, read-out: Amax. The source says:
Activity of compounds of the present invention was examined in recombinant, dual reporter isogenic Hek293 cell lines (“CFTR-Y122X assay”). The engineered reporter constructs contained the 18 bp sequence stretch corresponding to a common Y122X PTC mutation in CFTR class I mutant patients (see Sermet-Gaudelus, BMC Medicine, 2007, 5(5)). Instead of a tyrosine (Y) in position 122 of the CFTR protein a TGA stop codon interrupts the open reading frame (Y122X) of the corresponding mRNA. This TGA stop codon triplet (followed by the pyrimidine base cytosine) is permissive to aminoglycoside mediated translational readthrough which served as positive control for high throughput screening. A corresponding TAA stop codon variant and a wildtype non mutated construct was used for confirmation and counter screening. The CFTR sequence was sandwiched between an eGFP reporter, and a triple myc tag sequence fused to a full length Renilla reporter. All sequences, including an intron containing one positioned pre-eGFP (b-globin intron) were cloned in frame. The corresponding expression constructs were stably expressed in the isogenic HEK-R4 cell host (Invitrogen Incorp.) and selected by blasticidin resistance. The isogenic integration of the construct minimizes gene dose effects and improves assay reproducibility. Stably integrated single cell derived clones were selected and characterized for aminoglycoside mediated readthrough. […] Readthrough of Y122X accumulates an intracellular localized fusion protein approximately 65.5 kDa in size as controlled by western blot analysis and immunofluorescence using an anti-renilla antibody. The eGFP reporter pre-PTC mutation serves as visual control for genetic stability of the screening clones and minimizes protein degradation of small fusion protein amounts. In the assay, compound concentration was 10 μM. In miniaturized 1536 well format 2000 cells were dispensed in 4 μl/well and incubated for 24 h at 37° C., 5% CO2. 40 nl compounds were placed on the cells with control wells containing 1 ul Paramomycin and 14.4 mM final concentration. Compounds were incubated for 24 h. Renilla Glo substrate (2.5 ul) was added and plates were centrifuged and processed for luminescence measurement using various readers. Activity calculation was done using the equation: A1(%)=100*(S−NC)/(AC−NC) where AC, NC and S correspond to active controls (injection of Stimulation buffer=100% stimulation), neutral controls (buffer injection which Iloprost EC10) and screening samples (S). NC corresponds to 0% activity whereas AC is 100% activity (14 mM paromomycin). False positive artifacts were removed in confirmation and validation screening using the same assay format followed by counterscreening using the respective wildtype construct (w/o PTC mutation) cell model. Compounds were tested up to 100 μM compound concentration.

In test [1] the test system is alpha-L-Iduronidase W402X in Hurler patient derived fibroblast cells. Nature of the test: Hurler patient derived fibroblast cell cultures, restored alpha-L-iduronidase activity (W402X readthrough). The class given is cell-based, human. Particulars: Homo sapiens, Fibroblast, 192 h, 8 days incubation, highest concentration 20 uM; for Emax: 14 mM paromomycin = 100% control, read-out: Amax; for AC50: 8 point dilutions. The source says:
Activity of compounds of the present invention was examined in patient derived fibroblast cells. The genotyped cells were derived from the Coriell Institute (# GM00798) and contain an in frame homozygous TGG to TAG change at nucleotide 1293 of exon 9 which results in a W402X mutation. The W402X mutation is one of the most common Hurler syndromes causing loss of function mutation. Between 60-70% of genotyped patients contain either the Q70X and/or the W402X in mutation and are classified as severe MPSI patients. This TAG stop codon triplet is permissive to aminoglycoside mediated translational readthrough which served as activity control for compound testing. Readthrough of W402X restores alpha-L-Iduronidase activity which results in removal of lysosomal accumulated Glycosaminoglycan's. Iduronidase expression could neither be detected by Taqman PCR© nor by enzyme activity or ELISA methods without compound stimulation. Compounds were tested in concentration response mode. Therefore 5000 patient cells/40 ul/well in 384 well plates were used. Compound dilutions were derived from freshly prepared 10 mM compound stock solutions. Highest concentration was 20 uM and subsequently diluted 1: 3.16 (8 point dilutions, n=4). Final DMSO concentration was below 0.5% and tested to be without effect on cell viability, growth and readthrough. Cells were incubated for 8 days with one cell media and compound exchange at day 3. Thereafter cell media was removed and cells were lysed (0.4 M Sodiumformate, 0.1% NaN3, 0.9% NaCl, 0.2% Triton, pH 3.5). Restored alpha-L-iduronidase activity in cell lysates was measured with the fluorescent 4-MU iduronide substrate (5 ul of 0.4 mM 4 Methylumbelliferyl alpha-L-iduronide/well) after 48 h incubation. Paromomycin was used as reference control (14 mM=100% control).

Consider `Cn1c2ccsc2c(=O)c2c(=O)n(-c3ccccc3)c(C3CCC3)nc21` [Example 2.11, 2-cyclobutyl-9-methyl-3-phenylthieno[2′,3′:5,6]pyrido[2,3-d]pyrimidine-4,5(3H,9H)-dione], for which, in the test on CFTR-Y122X (Homo sapiens, HEK293, 24 h), the Emax is 157% and the AC50 (commonly the concentration giving half of the maximal activity seen) was found to be 2 µM. For the same compound, in test [1], the Emax amounted to 152% and the AC50 was 4.5 µM.
As to `Cc1cc2c(=O)c3c(=O)n(-c4ccccc4)c(C4CCC4)nc3n(C)c2s1` [Example 2.9, 2-cyclobutyl-7,9-dimethyl-3-phenylthieno[3′,2′:5,6]pyrido[2,3-d]pyrimidine-4,5(3H,9H)-dione], in the test on CFTR-Y122X (Homo sapiens, HEK293, 24 h), the Emax was 207% and the activity was half-maximal at 2.2 µM (AC50). In test [1], the Emax stood at 96% and the activity was half-maximal at 3.7 µM (AC50).
Turning to `CC(C)c1nc2c(c(=O)c3c(n2C)CCCC3)c(=O)n1-c1ccccc1` [Example 3.11, 2-isopropyl-10-methyl-3-phenyl-6,7,8,9-tetrahydropyrimido[4,5-b]quinoline-4,5(3H,10H)-dione], the Emax in the test on CFTR-Y122X (Homo sapiens, HEK293, 24 h) amounted to 137%; in test [1], 17%. This compound also displayed an AC50 with CFTR-Y122X (Homo sapiens, HEK293, 24 h) of 22 µM.
For `Cc1[nH]c2nc(C(C)C)n(-c3ccccc3)c(=O)c2c(=O)c1C` [Example 3.5, 2-isopropyl-6,7-dimethyl-3-phenylpyrido[2,3-d]pyrimidine-4,5(3H,8H)-dione] the same measures were 114%, 9% and 17 µM.
For `Cc1[nH]c2nc(C3CCC3)n(-c3ccccc3)c(=O)c2c(=O)c1C` [Example 3.12, 2-cyclobutyl-6,7-dimethyl-3-phenylpyrido[2,3-d]pyrimidine-4,5(3H,8H)-dione], in the test on CFTR-Y122X (Homo sapiens, HEK293, 24 h), the Emax was found to be 505% and the AC50 turned out to be 4.9 µM. For the same compound, in test [1], the Emax turned out to be 183% and the activity was half-maximal at 12 µM (AC50).
With `CCSc1nc2c(c(=O)n1-c1ccccc1)C(=O)C1CCCC1N2` (stereo not drawn) [2-(ethylthio)-3-phenyl-5a,6,7,8,8a,9-hexahydro-3H-cyclopenta[5,6]pyrido[2,3-d]pyrimidine-4,5-dione], the “suppression relative to paromomycin reference activity” value in the test on CFTR-Y122X (at the above dose ranges (up to 100 μM)) is recorded as “less than 5%”.
Take `CC(C)c1nc2c(c(=O)c3sccc3n2C)c(=O)n1-c1ccccc1` [Example 1.1, 2-isopropyl-9-methyl-3-phenylthieno[2′,3′:5,6]pyrido[2,3-d]pyrimidine-4,5(3H,9H)-dione]: in the test on CFTR-Y122X (Homo sapiens, HEK293), the Emax was 247% and half-maximal activity (AC50) was put at 2.2 µM. Further, in test [1], the Emax came to 25% and the AC50 amounted to 12 µM.
On to `CC(C)c1nc2c(c(=O)c3sc(Cl)cc3n2C)c(=O)n1-c1ccccc1` [Example 2.20, 7-chloro-2-isopropyl-9-methyl-3-phenylthieno[2′,3′:5,6]pyrido[2,3-d]pyrimidine-4,5(3H,9H)-dione], for which, in the test on CFTR-Y122X (Homo sapiens, HEK293, 24 h), the Emax came to 70% and half-maximal activity (AC50) was put at 19 µM. For the same compound, the Emax in test [1] amounted to 7%.
For the compound `CC(C)c1nc2[nH]c3ccsc3c(=O)c2c(=O)n1-c1ccccc1` [Example 2.7, 2-isopropyl-3-phenylthieno[2′,3′:5,6]pyrido[2,3-d]pyrimidine-4,5(3H,9H)-dione], in the test with CFTR-Y122X (Homo sapiens, HEK293, 24 h), the Emax turned out to be 332% and the AC50 was determined as 6.9 µM. In addition, in test [1], the Emax stood at 51% and the concentration at half-maximal activity (AC50) amounted to 10 µM.
In the case of `Cc1c(C)n(C)c2nc(C3CCC3)n(-c3ccccc3)c(=O)c2c1=O` [Example 3.13, 2-cyclobutyl-6,7,8-trimethyl-3-phenylpyrido[2,3-d]pyrimidine-4,5(3H,8H)-dione], in the test with CFTR-Y122X (Homo sapiens, HEK293, 24 h), the Emax was determined as 297% and the AC50 worked out at 9.2 µM. Further, in test [1], the Emax was determined as 34%.
On to `CC1CCc2c(n(C)c3nc(C(C)C)n(-c4ccccc4)c(=O)c3c2=O)C1` (stereo not drawn) [Example 3.9, 2-isopropyl-8,10-dimethyl-3-phenyl-6,7,8,9-tetrahydropyrimido[4,5-b]quinoline-4,5(3H,10H)-dione], for which, in the test on CFTR-Y122X (Homo sapiens, HEK293, 24 h), the Emax was determined as 11% and the AC50 came out at 11 µM. For the same compound, the Emax in test [1] worked out at 15%.
Turning to `CC(C)c1nc2[nH]c3cscc3c(=O)c2c(=O)n1-c1ccccc1` [Example 2.5, 2-isopropyl-3-phenylthieno[3′,4′:5,6]pyrido[2,3-d]pyrimidine-4,5(3H,9H)-dione], in the test on CFTR-Y122X (Homo sapiens, HEK293, 24 h), the Emax is 113% and the half-maximal activity concentration (AC50) is 23 µM. For the same compound, in test [1], the Emax turned out to be 16% and the AC50 was 1.1 µM.
Consider `CC(C)c1nc2c(c(=O)c3c(n2C)CCCCC3)c(=O)n1-c1ccccc1` [Example 3.2, 2-isopropyl-11-methyl-3-phenyl-7,8,9,10-tetrahydro-3H-cyclohepta[5,6]pyrido[2,3-d]pyrimidine-4,5(6H,11H)-dione], for which, in the test with CFTR-Y122X (Homo sapiens, HEK293, 24 h), the Emax was 213% and half-maximal activity (AC50) was put at 11 µM. Moreover, in test [1], the Emax came out at 83% and the AC50 was 12 µM.
Turning to `Cc1c(C)n(C)c2nc(C(C)C)n(-c3ccccc3)c(=O)c2c1=O` [Example 3.7, 2-isopropyl-6,7,8-trimethyl-3-phenylpyrido[2,3-d]pyrimidine-4,5(3H,8H)-dione], in the test with CFTR-Y122X (Homo sapiens, HEK293, 24 h), the Emax was determined as 61% and the concentration at half-maximal activity (AC50) came to 22 µM. Further, the Emax in test [1] was 14%.
As for `Cc1cc2c(=O)c3c(=O)n(-c4ccccc4)c(C4CCC4)nc3[nH]c2s1` [Example 2.1, 2-cyclobutyl-7-methyl-3-phenylthieno[3′,2′:5,6]pyrido[2,3-d]pyrimidine-4,5(3H,9H)-dione], the Emax with CFTR-Y122X (Homo sapiens, HEK293, 24 h) was 211%; in test [1] it was 42%. Besides, the AC50 with CFTR-Y122X (Homo sapiens, HEK293, 24 h) is 12 µM; in test [1] it was 12 µM.
In the case of `Cc1scc2c(=O)c3c(=O)n(-c4ccccc4)c(C4CCC4)nc3n(C)c12` [Example 2.16, 2-cyclobutyl-8,9-dimethyl-3-phenylthieno[3′,4′:5,6]pyrido[2,3-d]pyrimidine-4,5(3H,9H)-dione], in the test on CFTR-Y122X (Homo sapiens, HEK293, 24 h), the Emax was 199% and the AC50 is 4.6 µM. In test [1], the Emax was 150% and the concentration at half-maximal activity (AC50) stood at 12.3 µM.
Turning to `CC(C)c1nc2c(c(=O)c3cc(Cl)sc3n2C)c(=O)n1-c1ccccc1` [Example 2.19], in the test on CFTR-Y122X (Homo sapiens, HEK293, 24 h), the Emax is 104% and half-maximal activity (AC50) was put at 15 µM. For the same compound, in test [1], the Emax amounted to 16%.
As for `Cc1cc2[nH]c3nc(C(C)C)n(-c4ccccc4)c(=O)c3c(=O)c2s1` [Example 2.8, 2-isopropyl-7-methyl-3-phenylthieno[2′,3′:5,6]pyrido[2,3-d]pyrimidine-4,5(3H,9H)-dione], in the test on CFTR-Y122X (Homo sapiens, HEK293, 24 h), the Emax is 225% and half-maximal activity (AC50) was put at 7.9 µM. Also, in test [1], the Emax was determined as 65% and the AC50 was found to be 10 µM.
Regarding `NC[C@@H]1O[C@H](O[C@H]2[C@@H](O)[C@H](O[C@@H]3[C@@H](O)[C@H](N)C[C@H](N)[C@H]3O[C@H]3O[C@H](CO)[C@@H](O)[C@H](O)[C@H]3N)O[C@@H]2CO)[C@H](N)[C@@H](O)[C@@H]1O` [paromomycin, reference compound], the EC50 (in general, the concentration needed to bring the measured effect to its halfway point) with CFTR-Y122X (Homo sapiens, HEK293, clone pursued for HTS assay development, read-out: EC50 (readthrough response of selected clone)) is 1500 µM.
